Measured values: paper PMC3091812 (Neuropeptides, 2011)

Columns and labels:
HEK-293 cells [1] = assay: Caspase-3 activity assay, protection from 3-nitropropionate; format: cell-based, Human; details: 8 mM 3-NP, 12 hours, over control
HEK-293 cells [2] = assay: Caspase-3 activity assay, protection from staurosporine; format: cell-based, Human; details: 1 μM staurosporine, 12 hours, vs citrate buffer control

| SMILES | increase of caspase-3 activity by toxin (HEK-293 cells [1]) | increase of caspase-3 activity by toxin (HEK-293 cells [2]) |
| --- | --- | --- |
| O=C(O)CC[N+](=O)[O-] [3-NP, 3-nitropropionate] | approximately 100% | – |
| CN[C@@H]1C[C@H]2O[C@@](C)([C@@H]1OC)n1c3ccccc3c3c4c(c5c6ccccc6n2c5c31)C(=O)NC4 [staurosporine] | – | approximately 80% |
